Reference: PMC4879574, “Identification of Leishmania donovani Topoisomerase 1 inhibitors via intuitive scaffold hopping and bioisosteric modification of known Top 1 inhibitors” (Scientific Reports, 2016)
“And” between values parts separate entries of the source, which are not always exact repeats. Equal values may be shown once. Read-outs that look alike come from different tables or passages of the source.

Key:
[1] = target: Leishmania donovani Topoisomerase 1 (LdTop1) (Leishmania donovani, UniProt A0A3Q8IHS4+Q8WQM6); assay: Plasmid DNA relaxation assay, LdTop1 (simultaneous incubation); format: biochemical
Procedure: To investigate the inhibitory effect of our library compounds on the DNA relaxation activity of the recombinant Human and Leishmania topoisomerase 1 (Table 2), assays were performed involving supercoiled plasmid DNA, the enzymes (HTop1 and LdTop1) and our molecules. The enzymes were purified by the standard literature procedure.
(§1) All the experiments were conducted thrice and representative data from once set of them are expressed as mean ± SD.
(§2) The type I DNA topoisomerase are assayed by decreased mobility of the relaxed isomers of supercoiled pBS (SK^+) [pBlue-script (SK^+)] DNA in agarose gel. The relaxation assay was carried out as described previously with LdTop1B and HTop I, diluted in the relaxation buffer (25 mM Tris–HCl, pH 7.5, 5% glycerol, 0.5 mM DTT, 10 mM MgCl2, 50 mM KCl, […] and […] BSA) and supercoiled plasmid pBS (SK^+) DNA (85–95% were negatively supercoiled, with remainder being nicked circles)[9][28][29]. The reconstituted enzyme LdTop1B was assayed at 50 mM KCl concentration as described before. For all kinetic studies, the reaction mixtures containing the buffer and DNA were heated to 37 °C before addition of the enzymes. The reactions were rapidly quenched using stop solution and kept on ice. The gels were stained with ethidium bromide (EtBr) ([…]) and the amount of supercoiled monomer DNA band fluorescence were quantified by integration using Gel Doc 2000 under UV illumination (Bio-Rad Quantity One Software), as described previously.
Cells harvested from 1 litre of culture were separately lysed by lysozyme/sonication, and the proteins were purified through Ni-NTA (Ni^2+-nitriloacetate-agarose column (Qiagen, Hilden, Germany) followed by a phospho-cellulose column (P11 cellulose; Whatman, Maidstone Kent, UK) as described previously. Finally, the purified proteins LdTOP1L and LdTOP1S were stored at −70 °C. The concentrations of each protein were quantified by using Bradford Reagent (PIERCE, Thermo Fisher Scientific Inc., Rockford, USA). Purified LdTOP1L was mixed with purified LdTOP1S at a molar ratio of 1:1 to a total protein concentration of 0.5 mg/ml in reconstitution buffer [50 mM potassium phosphate, pH 7.5, 0.5 mM DTT, 1 mM EDTA, 0.1 mM PMSF and 10% (v/v) glycerol]. The mixture was dialyzed overnight at 4 °C and dialyzed fractions were used for plasmid relaxation activity.

LdTop1 = LdTop1 (Leishmania donovani, UniProt A0A3Q8IHS4+Q8WQM6); assay: Preincubation DNA relaxation inhibition assay, LdTop1; format: biochemical
Procedure: To interrogate whether compound 4 interacts with the enzyme, it was preincubated with LdTop1 at different concentration for 5 minutes at 37 °C before the addition of substrate DNA (Fig. 9a).
as §1, §2

[2] = Cytotoxicity on mammalian COS7 cell lines; format: cell-based; settings: African green monkey, COS7 cells
COS7 cells = assay: Cytotoxicity on mammalian COS7 cell lines; format: cell-based

Chain of Leishmania donovani Topoisomerase 1 (LdTop1) (Q8WQM6 entry or part of it): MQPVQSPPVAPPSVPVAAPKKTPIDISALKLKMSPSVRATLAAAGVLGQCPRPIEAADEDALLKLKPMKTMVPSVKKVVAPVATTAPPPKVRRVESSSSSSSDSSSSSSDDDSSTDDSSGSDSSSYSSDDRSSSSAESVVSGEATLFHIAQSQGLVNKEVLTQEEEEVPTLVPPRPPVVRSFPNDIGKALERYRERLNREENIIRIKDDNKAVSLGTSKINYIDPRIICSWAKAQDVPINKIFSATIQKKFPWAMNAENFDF
Chain of Leishmania donovani Topoisomerase 1 (LdTop1) (A0A3Q8IHS4 entry or part of it): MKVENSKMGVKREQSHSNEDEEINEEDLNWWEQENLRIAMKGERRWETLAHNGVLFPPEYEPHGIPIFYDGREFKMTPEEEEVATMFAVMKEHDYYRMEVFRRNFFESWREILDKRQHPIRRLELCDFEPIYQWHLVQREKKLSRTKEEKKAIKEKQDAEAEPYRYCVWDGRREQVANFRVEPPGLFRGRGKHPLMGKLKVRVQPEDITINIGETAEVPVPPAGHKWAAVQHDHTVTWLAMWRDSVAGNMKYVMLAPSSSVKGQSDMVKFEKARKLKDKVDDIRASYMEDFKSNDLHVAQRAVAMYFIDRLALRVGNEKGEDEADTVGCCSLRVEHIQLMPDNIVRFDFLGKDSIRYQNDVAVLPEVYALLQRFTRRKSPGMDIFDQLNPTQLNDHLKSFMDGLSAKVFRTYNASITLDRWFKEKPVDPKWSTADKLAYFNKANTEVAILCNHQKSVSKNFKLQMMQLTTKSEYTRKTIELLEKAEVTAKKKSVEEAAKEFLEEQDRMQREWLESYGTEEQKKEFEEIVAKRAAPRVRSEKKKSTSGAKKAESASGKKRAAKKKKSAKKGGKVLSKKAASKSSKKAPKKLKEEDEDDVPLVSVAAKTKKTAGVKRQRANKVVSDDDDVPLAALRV
Chain of LdTop1 (Q8WQM6 entry or part of it): as the sequence (Q8WQM6 entry or part of it) above
Chain of LdTop1 (A0A3Q8IHS4 entry or part of it): as the sequence (A0A3Q8IHS4 entry or part of it) above

With `Cc1cc2c(c(=O)[nH]1)C(=O)O/C2=C\c1ccc(O)c(O)c1` [Compound 4] the inhibition at 12.5 µM ([1]; LdTop1 relaxation, 12.5 uM, read-out: % inhibition, mean data) was 97.2%, the inhibition at 25 µM ([1]; LdTop1 relaxation, 25 uM, read-out: % inhibition, mean data) was 99.9% and the “% inhibition (CPT 100%), data 2” value ([1]; LdTop1 relaxation, 50 uM) was 100.001%. For the same compound, the inhibition at 50 µM ([1]; LdTop1 relaxation, 50 uM, read-out: % inhibition, mean data) was 100%, the “% inhibition (CPT 100%), data 2” value ([1]; LdTop1 relaxation, 100 uM) was 100.003% and the inhibition at 100 µM ([1]; LdTop1 relaxation, 100 uM, read-out: % inhibition, mean data) was 100%. The EC50 ([1]; incubated simultaneously with LdTop1 and supercoiled DNA, read-out: EC50, simultaneous assay) was 3.77 ± 0.27 µM, the “LdTop1 inhibitory activity” value ([1]; plasmid DNA relaxation) was “considerable activity” and the EC50 ([1]; plasmid DNA relaxation, averages of three experiments, read-out: LDTop1 inhibition (EC50)) was 4 µM and 3.51 µM. For the same compound, the inhibition at 12.5 µM ([1]; read-out: % inhibition (CPT 100%), data 1, LdTop1 relaxation, 12.5 uM) was 97.3%, the inhibition at 25 µM ([1]; read-out: % inhibition (CPT 100%), data 1, LdTop1 relaxation, 25 uM) was 99.9% and the inhibition at 50 µM ([1]; read-out: % inhibition (CPT 100%), data 1, LdTop1 relaxation, 50 uM) was 100%. It also gave an inhibition at 100 µM ([1]; read-out: % inhibition (CPT 100%), data 1, LdTop1 relaxation, 100 uM) of 100%, an inhibition at 0.62 µM ([1]; read-out: % inhibition (CPT 100%), data 1, simultaneous, 0.62 uM) of 7.36% and an inhibition at 1.25 µM ([1]; read-out: % inhibition (CPT 100%), data 1, simultaneous, 1.25 uM) of 23.5%. It also gave an inhibition at 2.5 µM ([1]; read-out: % inhibition (CPT 100%), data 1, simultaneous, 2.5 uM) of 42.8%, an inhibition at 5 µM ([1]; read-out: % inhibition (CPT 100%), data 1, simultaneous, 5 uM) of 60.1% and an inhibition at 10 µM ([1]; read-out: % inhibition (CPT 100%), data 1, simultaneous, 10 uM) of 88.3%. The inhibition at 20 µM ([1]; read-out: % inhibition (CPT 100%), data 1, simultaneous, 20 uM) was 91.6%, the inhibition at 12.5 µM ([1]; read-out: % inhibition (CPT 100%), data 2, LdTop1 relaxation, 12.5 uM) was 97.1% and the inhibition at 25 µM ([1]; read-out: % inhibition (CPT 100%), data 2, LdTop1 relaxation, 25 uM) was 99.9%. For the same compound, the inhibition at 50 µM ([1]; read-out: % inhibition (CPT 100%), data 2, LdTop1 relaxation, 50 uM) was 100%, the inhibition at 100 µM ([1]; read-out: % inhibition (CPT 100%), data 2, LdTop1 relaxation, 100 uM) was 100% and the inhibition at 0.62 µM ([1]; read-out: % inhibition (CPT 100%), data 2, simultaneous, 0.62 uM) was 8.88%. It also gave an inhibition at 1.25 µM ([1]; read-out: % inhibition (CPT 100%), data 2, simultaneous, 1.25 uM) of 22.5%, an inhibition at 2.5 µM ([1]; read-out: % inhibition (CPT 100%), data 2, simultaneous, 2.5 uM) of 43.7% and an inhibition at 5 µM ([1]; read-out: % inhibition (CPT 100%), data 2, simultaneous, 5 uM) of 60.9%. It also gave an inhibition at 10 µM ([1]; read-out: % inhibition (CPT 100%), data 2, simultaneous, 10 uM) of 86.5%, an inhibition at 20 µM ([1]; read-out: % inhibition (CPT 100%), data 2, simultaneous, 20 uM) of 92.9% and an inhibition at 0.62 µM ([1]; simultaneous, 0.62 uM, read-out: % inhibition, mean data) of 8.12%. It also gave an inhibition at 1.25 µM ([1]; simultaneous, 1.25 uM, read-out: % inhibition, mean data) of 23%, an inhibition at 2.5 µM ([1]; simultaneous, 2.5 uM, read-out: % inhibition, mean data) of 43.3% and an inhibition at 5 µM ([1]; simultaneous, 5 uM, read-out: % inhibition, mean data) of 60.5%. The inhibition at 10 µM ([1]; simultaneous, 10 uM, read-out: % inhibition, mean data) was 87.4%, the “% inhibition, mean data” value ([1]; simultaneous, 20 uM) was 92.2648% and the inhibition at 20 µM ([1]; simultaneous, 20 uM, read-out: % inhibition, mean data) was roughly 92%. It also gave an EC50 ([1]; supplement sheet, simultaneous, concentrations in uM, read-out: EC50 of 4-Sim) of 3.77 µM, an inhibition at 0.62 µM (LdTop1; pre-incubation, 0.62 uM, read-out: % inhibition, mean data) of 27.4% and an inhibition at 1.25 µM (LdTop1; pre-incubation, 1.25 uM, read-out: % inhibition, mean data) of 49%. For the same compound, the inhibition at 2.5 µM (LdTop1; pre-incubation, 2.5 uM, read-out: % inhibition, mean data) was 65.9%, the inhibition at 5 µM (LdTop1; pre-incubation, 5 uM, read-out: % inhibition, mean data) was 91.2% and the inhibition at 10 µM (LdTop1; pre-incubation, 10 uM, read-out: % inhibition, mean data) was 97.4%. The inhibition at 20 µM (LdTop1; pre-incubation, 20 uM, read-out: % inhibition, mean data) was roughly 100%, the EC50 (LdTop1; preincubated with LdTop1 5 min 37 °C before DNA, read-out: EC50, preincubation assay) was 1.72 ± 0.23 µM and the inhibition at 0.62 µM (LdTop1; read-out: % inhibition (CPT 100%), data 1, pre-incubation, 0.62 uM) was 27.1%. The inhibition at 1.25 µM (LdTop1; read-out: % inhibition (CPT 100%), data 1, pre-incubation, 1.25 uM) was 48.2%, the inhibition at 2.5 µM (LdTop1; read-out: % inhibition (CPT 100%), data 1, pre-incubation, 2.5 uM) was 67.4% and the inhibition at 5 µM (LdTop1; read-out: % inhibition (CPT 100%), data 1, pre-incubation, 5 uM) was 91.4%. The inhibition at 10 µM (LdTop1; read-out: % inhibition (CPT 100%), data 1, pre-incubation, 10 uM) was 97.2%, the inhibition at 20 µM (LdTop1; read-out: % inhibition (CPT 100%), data 1, pre-incubation, 20 uM) was 100% and the inhibition at 0.62 µM (LdTop1; read-out: % inhibition (CPT 100%), data 2, pre-incubation, 0.62 uM) was 27.7%. It also gave an inhibition at 1.25 µM (LdTop1; read-out: % inhibition (CPT 100%), data 2, pre-incubation, 1.25 uM) of 49.8%, an inhibition at 2.5 µM (LdTop1; read-out: % inhibition (CPT 100%), data 2, pre-incubation, 2.5 uM) of 64.5% and an inhibition at 5 µM (LdTop1; read-out: % inhibition (CPT 100%), data 2, pre-incubation, 5 uM) of 91%. It also gave an inhibition at 10 µM (LdTop1; read-out: % inhibition (CPT 100%), data 2, pre-incubation, 10 uM) of 97.5%, an inhibition at 20 µM (LdTop1; read-out: % inhibition (CPT 100%), data 2, pre-incubation, 20 uM) of 100% and an EC50 (LdTop1; supplement sheet, pre-incubation, concentrations in uM, read-out: EC50 of 4-PI) of 1.72 µM. The CC50 [2] was 390.6 ± 3.15 µM, the “Selectivity Index (SI)” value (COS7 cells; CC50 against COS7/IC50 against promastigote) was roughly 100 and the “Cytotoxicity against COS7” value (COS7 cells; COS7) was “no cytotoxicity”.
